In ChEMBL document CHEMBL3885881, “DrugMatrix”:
Where “and” joins values, the source holds several entries; their conditions need not be identical. Equal entries are not always repeated.

Species: Rattus norvegicus
Test: DrugMatrix - Regimen: Daily Repeat
Type: toxicity, organism-based, Sprague-Dawley
Design: regimen Daily Repeat, gender Male, age 6-8 weeks
Details: in vivo, vehicle 100 % SALINE
[1] = iv, 15 mg/kg, 72 h, tissue Plasma, dose level High, time 3 day
[2] = iv, 15 mg/kg, 120 h, tissue Blood, dose level High, time 5 day
[3] = iv, 15 mg/kg, 120 h, tissue Plasma, dose level High, time 5 day
[4] = sc, 0 mg/kg, 72 h, tissue Blood, route mini-PUMP - SUBCUTANEOUS, dose level Control, time 3 day
[5] = sc, 0 mg/kg, 72 h, tissue Plasma, route mini-PUMP - SUBCUTANEOUS, dose level Control, time 3 day
[6] = sc, 0 mg/kg, 120 h, tissue Blood, route mini-PUMP - SUBCUTANEOUS, dose level Control, time 5 day
[7] = sc, 0 mg/kg, 120 h, tissue Plasma, route mini-PUMP - SUBCUTANEOUS, dose level Control, time 5 day

CC(C)NCC(O)c1ccc(O)c(O)c1 (stereo not given) [ISOPROTERENOL]
POTASSIUM [1]: 6.86 MEQ/L
SODIUM [1]: 146.03 MEQ/L
TOTAL BILIRUBIN [1]: 0.13 mg/dL
TOTAL PROTEIN [1]: 5.8 G/DL
URIC ACID [1]: 1.53 mg/dL
ABSOLUTE BASOPHIL [2]: 0 CELLS/uL
ABSOLUTE EOSINOPHIL [2]: 89.33 CELLS/uL
ABSOLUTE LYMPHOCYTE [2]: 14556.33 CELLS/uL
ABSOLUTE MONOCYTE [2]: 270.67 CELLS/uL
ABSOLUTE SEGMENTED NEUTROPHIL [2]: 850.33 CELLS/uL
BASOPHIL [2]: 0%
EOSINOPHIL [2]: 0.67%
ERYTHROCYTE COUNT [2]: 5.8 x10E6/uL
HEMATOCRIT [2]: 37.17%
HEMOGLOBIN [2]: 13.6 G/DL
LEUKOCYTE COUNT [2]: 15.77 x10E3/uL
LYMPHOCYTE [2]: 92%
MEAN CORPUSCULAR HEMOGLOBIN [2]: 23.53 pg
MEAN CORPUSCULAR HEMOGLOBIN CONCENTRATION [2]: 36.7 G/DL
MEAN CORPUSCULAR VOLUME [2]: 64.07 fL
MONOCYTE [2]: 1.67%
NEUTROPHIL [2]: 5.67%
NUCLEATED RED BLOOD CELLS [2]: 0 /100WBC
PLATELET COUNT [2]: 1301.33 x10E3/uL
ALANINE AMINOTRANSFERASE [3]: 56 u/L
ALBUMIN [3]: 4.03 G/DL
ALKALINE PHOSPHATASE [3]: 369.67 u/L
ASPARTATE AMINOTRANSFERASE [3]: 62.33 u/L
BLOOD UREA NITROGEN [3]: 14.33 mg/dL
CARBON DIOXIDE [3]: 30.33 mmol/L
CHLORIDE [3]: 103.67 MEQ/L
CHOLESTEROL [3]: 65.67 mg/dL
CREATINE PHOSPHOKINASE [3]: 190.67 u/L
CREATININE [3]: 0.23 mg/dL
GLUCOSE [3]: 141 mg/dL
LACTATE DEHYDROGENASE [3]: 80 u/L
LIPASE [3]: 9 u/L
PHOSPHORUS [3]: 11.63 mg/dL
POTASSIUM [3]: 6.67 MEQ/L
SODIUM [3]: 146.27 MEQ/L
TOTAL BILIRUBIN [3]: 0.2 mg/dL
TOTAL PROTEIN [3]: 6.13 G/DL
URIC ACID [3]: 1.43 mg/dL
ABSOLUTE SEGMENTED NEUTROPHIL [4]: 1658.33 CELLS/uL
BASOPHIL [4]: 0.3% and 0%
EOSINOPHIL [4]: 0.43% and 0.5%
ERYTHROCYTE COUNT [4]: 6.91 x10E6/uL and 6.27 x10E6/uL
HEMATOCRIT [4]: 45.43% and 36.95%
HEMOGLOBIN [4]: 14.37 G/DL and 13.4 G/DL
LEUKOCYTE COUNT [4]: 12.09 x10E3/uL and 16.38 x10E3/uL
LYMPHOCYTE [4]: 81.73% and 87.17%
MEAN CORPUSCULAR HEMOGLOBIN [4]: 20.8 pg and 21.42 pg
MEAN CORPUSCULAR HEMOGLOBIN CONCENTRATION [4]: 31.67 G/DL and 36.27 G/DL
MEAN CORPUSCULAR VOLUME [4]: 65.83 fL and 59.03 fL
MONOCYTE [4]: 1.83% and 2%
NEUTROPHIL [4]: 15.07% and 10.33%
NUCLEATED RED BLOOD CELLS [4]: 0 /100WBC
PLATELET COUNT [4]: 1299.67 x10E3/uL and 904.67 x10E3/uL
ALANINE AMINOTRANSFERASE [5]: 34.33 u/L and 48.33 u/L
ALBUMIN [5]: 3.83 G/DL and 3.82 G/DL
ALKALINE PHOSPHATASE [5]: 333.67 u/L and 282.33 u/L
ASPARTATE AMINOTRANSFERASE [5]: 68 u/L and 86.83 u/L
BLOOD UREA NITROGEN [5]: 19.33 mg/dL and 20.17 mg/dL
CARBON DIOXIDE [5]: 43 mmol/L and 34.67 mmol/L
CHLORIDE [5]: 103.67 MEQ/L and 102 MEQ/L
CHOLESTEROL [5]: 84.33 mg/dL and 71.5 mg/dL
CREATINE PHOSPHOKINASE [5]: 334.33 u/L
CREATININE [5]: 0.53 mg/dL and 0.2 mg/dL
GLUCOSE [5]: 156.67 mg/dL and 136.83 mg/dL
LACTATE DEHYDROGENASE [5]: 159 u/L
PHOSPHORUS [5]: 9.8 mg/dL and 10.12 mg/dL
POTASSIUM [5]: 5.93 MEQ/L and 5.92 MEQ/L
SODIUM [5]: 146.33 MEQ/L and 147.8 MEQ/L
TOTAL BILIRUBIN [5]: 0.37 mg/dL and 0.2 mg/dL
TOTAL PROTEIN [5]: 6.4 G/DL and 6.05 G/DL
URIC ACID [5]: 0.73 mg/dL and 1.4 mg/dL
ABSOLUTE SEGMENTED NEUTROPHIL [6]: 3216.67 CELLS/uL
BASOPHIL [6]: 0.2% and 0%
EOSINOPHIL [6]: 0.33% and 0%
ERYTHROCYTE COUNT [6]: 6.81 x10E6/uL and 6.11 x10E6/uL
HEMATOCRIT [6]: 44.33% and 36.22%
HEMOGLOBIN [6]: 13.77 G/DL and 13.18 G/DL
LEUKOCYTE COUNT [6]: 11.2 x10E3/uL and 17.8 x10E3/uL
LYMPHOCYTE [6]: 80.33% and 80.5%
MEAN CORPUSCULAR HEMOGLOBIN [6]: 20.23 pg and 21.62 pg
MEAN CORPUSCULAR HEMOGLOBIN CONCENTRATION [6]: 31.03 G/DL and 36.42 G/DL
MEAN CORPUSCULAR VOLUME [6]: 65.1 fL and 59.37 fL
MONOCYTE [6]: 2.1% and 1.83%
NEUTROPHIL [6]: 16.43% and 17.67%
NUCLEATED RED BLOOD CELLS [6]: 0 /100WBC
PLATELET COUNT [6]: 1573.33 x10E3/uL and 1311 x10E3/uL
ALANINE AMINOTRANSFERASE [7]: 38 u/L and 47 u/L
ALBUMIN [7]: 3.87 G/DL and 3.83 G/DL
ALKALINE PHOSPHATASE [7]: 303.67 u/L and 260.33 u/L
ASPARTATE AMINOTRANSFERASE [7]: 72.67 u/L and 76.17 u/L
BLOOD UREA NITROGEN [7]: 17.33 mg/dL and 14.67 mg/dL
CARBON DIOXIDE [7]: 41.33 mmol/L and 31.33 mmol/L
CHLORIDE [7]: 104.33 MEQ/L and 101.17 MEQ/L
CHOLESTEROL [7]: 74.33 mg/dL and 75 mg/dL
CREATINE PHOSPHOKINASE [7]: 286.67 u/L
CREATININE [7]: 0.47 mg/dL and 0.16 mg/dL
GLUCOSE [7]: 152.33 mg/dL and 152.67 mg/dL
LACTATE DEHYDROGENASE [7]: 147.33 u/L
PHOSPHORUS [7]: 10 mg/dL and 10.97 mg/dL
POTASSIUM [7]: 6.4 MEQ/L and 6 MEQ/L
SODIUM [7]: 146 MEQ/L and 145.52 MEQ/L
TOTAL BILIRUBIN [7]: 0.43 mg/dL and 0.17 mg/dL
TOTAL PROTEIN [7]: 6.27 G/DL and 5.83 G/DL
URIC ACID [7]: 0.83 mg/dL and 1.27 mg/dL
ABSOLUTE SEGMENTED NEUTROPHIL (sc, 0 mg/kg, […], tissue Blood, route mini-PUMP - SUBCUTANEOUS, dose level Control, time 14 day): 2414 CELLS/uL
